One experiment concerns the target KRAS G12C-BRAF complex (Homo sapiens (Human), UniProt P01116+P62937, G12C). In words: KRAS-BRAF with CYPA (500 nM) interaction assay (TR-FRET), G12C. The format is biochemical.
Experiment [1] concerns the target KRAS G12D binding to BRAF (Homo sapiens (Human), UniProt P01116+P62937, G12D). The experiment in a line: KRAS-BRAF with CYPA (500 nM) interaction assay (TR-FRET), G12D. The class given is biochemical.
For experiment [2], the target named is KRAS G12V binding to BRAF (Homo sapiens (Human), UniProt P01116+P62937, G12V). The experiment in a line: KRAS-BRAF with CYPA (500 nM) interaction assay (TR-FRET), G12V. The class given is biochemical. Put shortly: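 A TR-FRET assay measured how compound, in the presence of CYPA, disrupts binding of GMPPNP-loaded 6His-KRAS G12V to BRAF. The buffer contained 25 mM HEPES PH=7.4, 0.002% Tween20, 0.1% BSA, 100 mM NaCl, 5 mM MgCl2 and 10 μM GMPPNP. Compounds ran as a 16-point 3-fold dilution series from 10 μM for 3 hours.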
(In general: TR-FRET usually uses a lanthanide donor and a delayed reading to cut background.)

The test system of experiment [3] is phosphorylation of ERK, KRAS G12C in NCJ-H358 cells. The experiment in a line: pERK inhibition assay, KRAS G12C. The class given is cell-based, human. To be noted: Homo sapiens, 4 hours. The essentials: (§1)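 Plate cells, attach overnight; add compound (0.5% DMSO) for 4 h; fix in 4% formaldehyde, permeabilize with chilled methanol; block; incubate pERK antibody overnight at 4 °C, then HRP secondary; develop with TMB, stop, read OD450; fit 4-parameter curve for IC50.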

Experiment [4] relates to phosphorylation of ERK, KRAS G12D in AGS cells. In words: pERK inhibition assay, KRAS G12D. The conditions noted are these: Homo sapiens, 4 hours. The format is cell-based, human. The essentials:
as §1

In experiment [5] the test system is phosphorylation of ERK, KRAS G12V in SW620. The experiment in a line: pERK inhibition assay, KRAS G12V. The format is cell-based, human. The conditions noted are these: Homo sapiens, SW-620, SW620, 4 hours. The essentials:
as §1

This note sets out measurements from US20250206761A1, “HALOINDOLE MACROCYCLIC COMPOUNDS FOR THE TREATMENT OF CANCER” (Hoffmann-La Roche Inc., priority 2022, published 2025).

KRAS G12V binding to BRAF, sequence (P01116-2 other isoform, or with tags, fused parts or gaps G12V): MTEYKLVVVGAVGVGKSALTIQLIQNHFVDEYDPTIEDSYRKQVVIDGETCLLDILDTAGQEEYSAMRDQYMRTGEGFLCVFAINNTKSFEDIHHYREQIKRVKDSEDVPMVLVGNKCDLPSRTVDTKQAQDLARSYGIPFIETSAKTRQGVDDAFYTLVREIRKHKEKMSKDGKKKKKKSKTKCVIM
KRAS G12V binding to BRAF, sequence (P62937 whole entry): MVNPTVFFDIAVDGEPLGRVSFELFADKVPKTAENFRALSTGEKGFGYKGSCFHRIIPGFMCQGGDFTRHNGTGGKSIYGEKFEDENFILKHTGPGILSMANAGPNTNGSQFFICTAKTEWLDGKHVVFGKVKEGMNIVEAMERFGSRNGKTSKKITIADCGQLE
KRAS G12C-BRAF complex, sequence (P01116-2 other isoform, or with tags, fused parts or gaps G12C): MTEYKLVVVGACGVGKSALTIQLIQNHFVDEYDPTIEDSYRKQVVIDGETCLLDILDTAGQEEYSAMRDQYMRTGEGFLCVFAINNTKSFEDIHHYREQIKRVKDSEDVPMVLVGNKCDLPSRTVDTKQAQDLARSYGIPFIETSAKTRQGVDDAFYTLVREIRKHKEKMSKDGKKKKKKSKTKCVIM
KRAS G12C-BRAF complex, sequence (P62937 whole entry): as the sequence (P62937 whole entry) above
KRAS G12D binding to BRAF, sequence (P01116-2 other isoform, or with tags, fused parts or gaps G12D): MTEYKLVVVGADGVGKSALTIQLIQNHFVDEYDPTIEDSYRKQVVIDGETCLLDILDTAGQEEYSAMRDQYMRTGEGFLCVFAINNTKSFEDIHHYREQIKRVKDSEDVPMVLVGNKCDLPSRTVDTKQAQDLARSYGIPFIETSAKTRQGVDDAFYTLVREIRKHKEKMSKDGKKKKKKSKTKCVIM
KRAS G12D binding to BRAF, sequence (P62937 whole entry): as the sequence (P62937 whole entry) above

As to `CO[C@@H](C)c1ncc(N2CCN(C)CC2)cc1-c1c2c3cc(c(F)cc3n1CC(F)(F)F)-c1csc(n1)C[C@H](NC(=O)[C@H](C(C)C)N1CCCC3(CN(C(=O)[C@H](F)Cl)C3)C1=O)C(=O)N1CCC[C@H](N1)C(=O)OCC(C)(C)C2` (atropisomer, axis not shown; (M)) [Example 11, (2S)-2-[2-[(2R)-2-chloro-2-fluoro-acetyl]-5-oxo-2,6-diazaspiro[3.5]nonan-6-yl]-N-[(7S,13S)-24-fluoro-(20M)-20-[2-[(1S)-1-methoxyethyl]-5-(4-methylpiperazin-1-yl)-3-pyridyl]-17,17-dimethyl-8,14-dioxo-21-(2,2,2-trifluoroethyl)-15-oxa-4-thia-9,21,27,28-tetrazapentacyclo[17.5.2.1^2,5.1^9,13.0^22,26]octacosa-1(25),2,5(28),19,22(26),23-hexaen-7-yl]-3-methyl-butanamide], the IC50 at KRAS G12C-BRAF complex was 45 nM; in experiment [1], above 10 µM; in experiment [2], 1030 nM; in experiment [3], below 1 nM; in experiment [4], 27 nM; in experiment [5], 22 nM.
With `CCn1c(-c2cc(N3CCOCC3)cnc2[C@H](C)OC)c2c3cc(c(F)cc31)-c1csc(n1)C[C@H](NC(=O)[C@H](C(C)C)N1CC[C@]3(CCN(C(=O)[C@H](F)Cl)C3)C1=O)C(=O)N1CCC[C@H](N1)C(=O)OCC(C)(C)C2` (atropisomer, axis not shown; (M)) [Example 51, (2S)-2-[(5S)-7-[(2R)-2-chloro-2-fluoro-acetyl]-1-oxo-2,7-diazaspiro[4.4]nonan-2-yl]-N-[(7S,13S)-21-ethyl-24-fluoro-(20M)-20-[2-[(1S)-1-methoxyethyl]-5-morpholino-3-pyridyl]-17,17-dimethyl-8,14-dioxo-15-oxa-4-thia-9,21,27,28-tetrazapentacyclo[17.5.2.1^2,5.1^9,13.0^22,26]octacosa-1(25),2,5(28),19,22(26),23-hexaen-7-yl]-3-methyl-butanamide], the 50% inhibitory concentration (IC50) against KRAS G12C-BRAF complex was 74 nM; in experiment [1] it was above 10 µM; in experiment [2], 6440 nM; in experiment [3], 2 nM; in experiment [4] it was 62 nM; in experiment [5], 57 nM.
`CCn1c(-c2cc(N3CCOCC3)cnc2[C@H](C)OC)c2c3cc(c(F)cc31)-c1csc(n1)C[C@H](NC(=O)[C@H](C(C)C)N(C)C(=O)[C@H]1CCN(C(=O)[C@H](F)Cl)C1)C(=O)N1CCC[C@H](N1)C(=O)OCC(C)(C)C2` (atropisomer, axis not shown; (M)) [Example 55, (3S)-1-[(2R)-2-chloro-2-fluoro-acetyl]-N-[(1S)-1-[[(7S,13S)-21-ethyl-24-fluoro-(20M)-20-[2-[(1S)-1-methoxyethyl]-5-morpholino-3-pyridyl]-17,17-dimethyl-8,14-dioxo-15-oxa-4-thia-9,21,27,28-tetrazapentacyclo[17.5.2.1^2,5.1^9,13.0^22,26]octacosa-1(25),2,5(28),19,22(26),23-hexaen-7-yl]carbamoyl]-2-methyl-propyl]-N-methyl-pyrrolidine-3-carboxamide]: the IC50 is 40 nM against KRAS G12C-BRAF complex; above 10 µM in experiment [1]; 2110 nM in experiment [2]; 6 nM in experiment [3]; 106 nM in experiment [4]; 75 nM in experiment [5].
With `CO[C@@H](C)c1ncc(N2CCN(C)CC2)cc1-c1c2c3cc(c(C)cc3n1CC(F)(F)F)-c1csc(n1)C[C@H](NC(=O)[C@H](C(C)C)N(C)C(=O)C1(F)CCN(C(=O)[C@H](F)Cl)CC1)C(=O)N1CCC[C@H](N1)C(=O)OCC(C)(C)C2` (atropisomer, axis not shown; (M)) [Example 9, 1-[(2R)-2-chloro-2-fluoro-acetyl]-4-fluoro-N-[(1S)-1-[[(7S,13S)-(20M)-20-[2-[(1S)-1-methoxyethyl]-5-(4-methylpiperazin-1-yl)-3-pyridyl]-17,17,24-trimethyl-8,14-dioxo-21-(2,2,2-trifluoroethyl)-15-oxa-4-thia-9,21,27,28-tetrazapentacyclo[17.5.2.1^2,5.1^9,13.0^22,26]octacosa-1(25),2,5(28),19,22(26),23-hexaen-7-yl]carbamoyl]-2-methyl-propyl]-N-methyl-piperidine-4-carboxamide], the 50% inhibitory concentration (IC50) against KRAS G12C-BRAF complex is 176 nM; in experiment [1] it was above 10 µM; in experiment [2], above 10000 nM; in experiment [3], 3 nM; in experiment [4], 23 nM; in experiment [5], 22 nM.
Consider `CO[C@@H](C)c1ncc(N2CCN(C)CC2)cc1-c1c2c3cc(c(F)cc3n1CC(F)(F)F)-c1csc(n1)C[C@H](NC(=O)[C@H](C(C)C)N1CCC[C@@]3(CCN(C(=O)[C@H](F)Cl)C3)C1=O)C(=O)N1CCC[C@H](N1)C(=O)OCC(C)(C)C2` (single isomer, unassigned) [Example 16], for which the IC50 against KRAS G12C-BRAF complex is 100 nM; in experiment [1], above 10 µM; in experiment [2], above 10000 nM; in experiment [3], 1 nM; in experiment [4], 19 nM; in experiment [5], 15 nM.
Consider `CO[C@@H](C)c1ncc(N2CCN(C)CC2)cc1-c1c2c3c(F)c(ccc3n1CC(F)(F)F)-c1csc(n1)C[C@H](NC(=O)[C@H](C(C)C)N1CCCC3(CCN(C(=O)[C@H](F)Cl)CC3)C1=O)C(=O)N1CCC[C@H](N1)C(=O)OCC(C)(C)C2` (atropisomer, axis not shown; (M)) [Example 20, (2S)-2-[9-[(2R)-2-chloro-2-fluoro-acetyl]-1-oxo-2,9-diazaspiro[5.5]undecan-2-yl]-N-[(7S,13S)-25-fluoro-(20M)-20-[2-[(1S)-1-methoxyethyl]-5-(4-methylpiperazin-1-yl)-3-pyridyl]-17,17-dimethyl-8,14-dioxo-21-(2,2,2-trifluoroethyl)-15-oxa-4-thia-9,21,27,28-tetrazapentacyclo[17.5.2.1^2,5.1^9,13.0^22,26]octacosa-1(25),2,5(28),19,22(26),23-hexaen-7-yl]-3-methyl-butanamide], for which the 50% inhibitory concentration (IC50) was found to be 148 nM against KRAS G12C-BRAF complex; 1.24 µM in experiment [1]; 1780 nM in experiment [2]; 5 nM in experiment [3]; 98 nM in experiment [4]; 73 nM in experiment [5].

Broadly, the IC50 is the concentration needed to halve the response being measured.
